Test results as given in paper PMC6749586, “Design, Synthesis, and Anticancer Effect Studies of Iridium(III) Polypyridyl Complexes against SGC-7901 Cells” (Molecules, 2019).

Columns and labels:
Eca-109 cells = assay: MTT cytotoxicity assay, Eca-109; type: cell-based, human; conditions: 48 h, read-out: IC50 toward Eca-109
Source text: The lung carcinoma cell line A549, the cervical cancer cell line HeLa, the esophageal cancer cell line Eca-109, and the human hepatocellular carcinoma cell line BEL-7402 were purchased from the cell bank of the Cell Institute of Sinica Academia Shanghai (Shanghai, China). The gastric adenocarcinoma cell line SGC-7901, the hepatocellular carcinoma cell line HepG2, and the mouse embryonic fibroblast cell line NIH 3T3 were obtained from the Experimental Animal Center of Sun Yat-Sen University (Guangzhou, China). […] Cell passage experiments were performed with trypsin every 2 days to maintain exponential growth. All cells were cultured until they reached logarithmic growth phase, unless specifically noted. Cell cytotoxicity following treatment with the iridium(III) complexes was detected by MTT assay. The cells were seeded into 96-well micro-assay culture plates (1 × 10^4 cells per well) and grown overnight in a 5% CO2 incubator at 37 °C. Then, the cell lines were treated with gradient concentrations of the complexes 1–3. After treatment for 48 h, MTT solution (5 mg mL^−1, […]) dissolved in phosphate buffer was added to each well and the cells were further cultured for 4 h. […] The absorbance of each well was measured with a microplate reader at a wavelength of 490 nm. The IC50 values were determined from the plots of viability versus concentration used to treat the cells. Three independent experiments were performed to obtain the mean values.

NIH 3T3 cells = assay: MTT cytotoxicity assay, normal NIH 3T3; type: cell-based, mouse; conditions: 48 h, read-out: IC50 toward NIH 3T3
Source text: (§1) The lung carcinoma cell line A549, the cervical cancer cell line HeLa, the esophageal cancer cell line Eca-109, and the human hepatocellular carcinoma cell line BEL-7402 were purchased from the cell bank of the Cell Institute of Sinica Academia Shanghai (Shanghai, China). The gastric adenocarcinoma cell line SGC-7901, the hepatocellular carcinoma cell line HepG2, and the mouse embryonic fibroblast cell line NIH 3T3 were obtained from the Experimental Animal Center of Sun Yat-Sen University (Guangzhou, China). The BEL-7402 and SGC-7901 cell lines were cultured in Roswell Park Memorial Institute Medium (RPMI-1640); and A549, Eca-109, HepG2, and NIH 3T3 cells were grown in Dulbecco’s Modified Eagle’s Medium (DMEM), including 10% fetal bovine serum (FBS), 100 units mL^−1 penicillin/streptomycin mixture, and 2.0 g/L of NaHCO3. Cell passage experiments were performed with trypsin every 2 days to maintain exponential growth. All cells were cultured until they reached logarithmic growth phase, unless specifically noted.
(§2) Cell cytotoxicity following treatment with the iridium(III) complexes was detected by MTT assay. The cells were seeded into 96-well micro-assay culture plates (1 × 10^4 cells per well) and grown overnight in a 5% CO2 incubator at 37 °C. Then, the cell lines were treated with gradient concentrations of the complexes 1–3. After treatment for 48 h, MTT solution (5 mg mL^−1, […]) dissolved in phosphate buffer was added to each well and the cells were further cultured for 4 h. Upon completion of incubation, the solvent was removed and 100 µL/well of buffer containing dimethylformamide (50%) and sodium dodecyl sulfate (20%) was added to dissolve the produced formazan. The absorbance of each well was measured with a microplate reader at a wavelength of 490 nm. The IC50 values were determined from the plots of viability versus concentration used to treat the cells. Three independent experiments were performed to obtain the mean values.

HepG2 cells = assay: MTT cytotoxicity assay, HepG2; type: cell-based, human; conditions: 48 h, read-out: IC50 toward HepG2
Source text: as §1, §2

SGC-7901 cells [1] = assay: Intracellular ROS measurement with DCFH-DA; type: cell-based, human; conditions: 4.0 µM 1, 15.0 µM 2, 15.0 µM 3, Rosup positive control, 24 h, versus control
Procedure: 2,7-Dichloro-dihydrofluorescein diacetate (DCFH-DA) was used as a fluorescence probe to investigate the changes in intracellular ROS levels. SGC-7901 cells were placed in a 12-well plate at a density of 1.5 × 10^5 per well. After 24 h, the medium in the wells was replaced with a medium containing the corresponding concentration of 1–3, and the cells were incubated for 24 h. Finally, the cell pellets were suspended in PBS and imaged under the ImageXpress Micro XLS system (MD company, US). The DCF fluorescence intensity was calculated by flow cytometry.

SGC-7901 cells [2] = assay: Intracellular Ca2+ level with Fluo-3AM; type: cell-based, human; conditions: 4.0 µM 1, 15.0 µM 2, 15.0 µM 3, 24 h; controls weak green fluorescence
Procedure: SGC-7901 cells in the logarithmic growth phase were seeded in 12-well microassay culture plates (1.5 × 10^5 cells per well), incubated overnight, and then treated with different concentrations of the tested complexes (4.0 µM 1, 15.0 μM 2, and 15.0 μM 3) for 24 h. The control wells were prepared by the addition of solvent (10 μL PBS buffer). The concentration of Ca^2+ was detected using the Ca^2+-sensitive fluorescent probe Fluo-3AM. Upon completion of incubation, the medium was removed and the wells were washed twice with PBS buffer, following which the cells were dyed with Fluo-3AM for 30 min. After dyeing, the cells were washed again and stained with Hoechst 33258 (10 μg mL^−1) for 30 min. The remaining dye was removed and the cells were observed under an ImageXpress Micro XLS system.

SGC-7901 cells [3] = assay: Mitochondrial membrane potential assay with JC-1; type: cell-based, human; conditions: 24 h; for Ratio of red/green JC-1 fluorescence intensity (R): substance alone: 4.0 µM 1, 15.0 µM 2, 15.0 µM 3, CCCP or NAC, control 12.03; for Ratio of red/green JC-1 fluorescence intensity (R), complex + NAC: 4.0 µM 1, 15.0 µM 2, 15.0 µM 3, in the presence of NAC
Procedure: The SGC-7901 cells were seeded into a 12-well plate at a density of 1.5 × 10^5 cells per well and incubated to attach at 37 °C in 5% CO2. Overnight, the cells were treated with complexes 1–3 for 24 h. CCCP was used as a positive control. Then, the cells were incubated with JC-1 for 30 min at room temperature, after which the remaining dye was washed away with PBS. The samples were then observed under the ImageXpress Micro XLS system and flow cytometry was employed to quantify the fluorescence intensity.

SGC-7901 cells [4] = assay: Colony-forming assay; type: cell-based, human; conditions: 4.0 µM 1, 15.0 µM 2, 15.0 µM 3, 8 days
Procedure: The SGC-7901 cells were seeded at a cell density of 500 cells per well in a 6-well plate. After 24 h, an equal amount of solvent or iridium complexes was added into the medium for another 24 h. Then, the medium containing the tested complexes was removed and replaced with fresh medium. The number of the colonies was counted on the 8th day after seeding and then fixed with paraformaldehyde for 20 min. The colonies were photographed under an inverted microscope after staining with 0.1% (w/v) crystal violet for 20 min. Each experiment was carried out in triplicate.

Structure (SMILES) | IC50 (Eca-109 cells) [µM] | IC50 (NIH 3T3 cells) [µM] | IC50 (HepG2 cells) [µM] | Intracellular ROS level, DCF green fluorescence (imaging) (SGC-7901 cells [1]) | Intracellular Ca2+ level, Fluo-3AM fluorescence (SGC-7901 cells [2]) | Ratio of red/green JC-1 fluorescence intensity (R) (SGC-7901 cells [3]) | Inhibition of colony formation (SGC-7901 cells [4]) | Ratio of red/green JC-1 fluorescence intensity (R), complex + NAC (SGC-7901 cells [3])
F[P-](F)(F)(F)(F)F.Nc1c(N)c2cccnc2c2ncccc12.[Ir+3].[c-]1ccccc1-c1ccccn1.[c-]1ccccc1-c1ccccn1 [Complex 3, [Ir(Hppy)2(DAP)]PF6] | 97.1 ± 0.2 | > 100 | 95 ± 9.1 | increased green fluorescence intensity | brilliant green fluorescence | 1.49 | significant inhibition of colony formation | –
F[P-](F)(F)(F)(F)F.Nc1c([N+](=O)[O-])c2cccnc2c2ncccc12.[Ir+3].[c-]1ccccc1-c1ccccn1.[c-]1ccccc1-c1ccccn1 [Complex 2, [Ir(Hppy)2(NAP)]PF6] | 72.6 ± 5.3 | 23 ± 1.5 | 99 ± 14.7 | increased green fluorescence intensity | brilliant green fluorescence | 7.12 | significant inhibition of colony formation | 17.99
F[P-](F)(F)(F)(F)F.O=[N+]([O-])c1cc2ccc[n+]3c2c2c1ccc[n+]2[Ir-5]312([c]3ccccc3-c3cccc[n+]31)[c]1ccccc1-c1cccc[n+]12 [Complex 1, [Ir(Hppy)2(NP)]PF6] | 20.3 ± 0.9 | 14.6 ± 1.3 | 30.9 ± 0.7 | increased green fluorescence intensity | brilliant green fluorescence | 0.43 | significant inhibition of colony formation | 1.86
